In the test the test system is L1210 leukemia ip in BDF1 mice, survival T/C. Nature of the test: NCI In Vivo Anticancer Drug Screen. Data for tumor model L1210 Leukemia (intraperitoneal) in B6D2F1 (BDF1) mice. As to conditions: endpoint: mean survival time, higher = longer survival. In short, it runs like this:
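Antitumor effect is assessed in tumor-bearing animals. Survival in the compound arm is compared with a vehicle-dosed control arm and expressed as their quotient.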

[1] abbreviates: dose: 100.0 mg/kg/injection, schedule: Q01DX009 (ip), vehicle: Klucel (hydroxypropylcellulose) (HPC).
Setting [2] is: dose: 200.0 mg/kg/injection, schedule: Q01DX009 (ip), vehicle: Klucel (hydroxypropylcellulose) (HPC).
Where [3] appears, read: dose: 100.0 mg/kg/injection, schedule: Q01DX001 (ip), vehicle: saline.
Where [4] appears, read: dose: 100.0 mg/kg/injection, schedule: Q04DX002 (ip), vehicle: saline.
Setting [5] is: dose: 100.0 mg/kg/injection, schedule: Q04DX003 (ip), vehicle: saline with Tween-80.
Setting [6] is: dose: 200.0 mg/kg/injection, schedule: Q01DX001 (ip), vehicle: saline.
[7] abbreviates: dose: 200.0 mg/kg/injection, schedule: Q04DX002 (ip), vehicle: saline.
Setting [8] is: dose: 400.0 mg/kg/injection, schedule: Q01DX001 (ip), vehicle: saline.
Setting [9] is: dose: 50.0 mg/kg/injection, schedule: Q01DX009 (ip), vehicle: saline.

Structures are written as SMILES. Inconclusive results and toxic doses are left out.

With `COc1ccc(NC(=O)OC/C=C/c2ccccc2)c(OC)c1`, the T/C is 90 % of control under setting [1] and 87 % of control under setting [2].

Take `C=CN1CCCC1=O`: the T/C is 95 % of control (dose: 100.0 mg/kg/injection, schedule: Q01DX001 (ip), vehicle: acetone); 97 % of control under setting [3]; 103 % of control under setting [4]; 100 % of control under setting [5]; 95 % of control (dose: 200.0 mg/kg/injection, schedule: Q01DX001 (ip), vehicle: acetone); 92 % of control under setting [6]. Further, the T/C is 103 % of control under setting [7]; 92 % of control (dose: 200.0 mg/kg/injection, schedule: Q04DX003 (ip), vehicle: saline with Tween-80); 93 % of control (dose: 400.0 mg/kg/injection, schedule: Q01DX001 (ip), vehicle: acetone); 103 % of control (dose: 400.0 mg/kg/injection, schedule: Q04DX002 (ip), vehicle: saline); 92 % of control (dose: 400.0 mg/kg/injection, schedule: Q04DX003 (ip), vehicle: saline with Tween-80); 100 % of control (dose: 600.0 mg/kg/injection, schedule: Q01DX001 (ip), vehicle: saline). Also, the T/C (dose: 800.0 mg/kg/injection, schedule: Q01DX001 (ip), vehicle: saline) is 100 % of control; the T/C (dose: 1000.0 mg/kg/injection, schedule: Q01DX001 (ip), vehicle: saline) is 106 % of control; the T/C (dose: 1200.0 mg/kg/injection, schedule: Q01DX001 (ip), vehicle: saline) is 108 % of control; the T/C (dose: 1.9 grams/kg/injection, schedule: Q01DX001 (iv), vehicle: saline) is 98 % of control; the T/C (dose: 1.9 grams/kg/injection, schedule: Q01DX005 (iv), vehicle: saline) was 97 % of control; the T/C (dose: 1.9 grams/kg/injection, schedule: Q04DX003 (iv), vehicle: saline) is 97 % of control. In addition, the T/C is, setting by setting: (dose: 3.8 grams/kg/injection, schedule: Q01DX001 (ip), vehicle: saline) 90 % of control; (dose: 3.8 grams/kg/injection, schedule: Q01DX001 (iv), vehicle: saline) 97 % of control; (dose: 3.8 grams/kg/injection, schedule: Q01DX005 (ip), vehicle: saline) 100 % of control; (dose: 3.8 grams/kg/injection, schedule: Q01DX005 (iv), vehicle: saline) 96 % of control; (dose: 3.8 grams/kg/injection, schedule: Q01DX009 (ip), vehicle: saline) 91 % of control; (dose: 3.8 grams/kg/injection, schedule: Q03HX008 (ip), vehicle: saline) 97 % of control. Further, the T/C is 98 % of control (dose: 3.8 grams/kg/injection, schedule: Q03HX016 (ip), vehicle: saline); 101 % of control (dose: 3.8 grams/kg/injection, schedule: Q03HX024 (ip), vehicle: saline); 101 % of control (dose: 3.8 grams/kg/injection, schedule: Q04DX003 (ip), vehicle: saline); 94 % of control (dose: 3.8 grams/kg/injection, schedule: Q04DX003 (iv), vehicle: saline); 97 % of control (dose: 3.8 grams/kg/injection, schedule: Q08DX002 (ip), vehicle: saline); 93 % of control (dose: 7.5 grams/kg/injection, schedule: Q01DX001 (ip), vehicle: saline). Moreover, the T/C (dose: 7.5 grams/kg/injection, schedule: Q01DX001 (iv), vehicle: saline) was 97 % of control; the T/C (dose: 7.5 grams/kg/injection, schedule: Q01DX005 (ip), vehicle: saline) is 103 % of control; the T/C (dose: 7.5 grams/kg/injection, schedule: Q01DX005 (iv), vehicle: saline) is 93 % of control; the T/C (dose: 7.5 grams/kg/injection, schedule: Q01DX009 (ip), vehicle: saline) is 97 % of control; the T/C (dose: 7.5 grams/kg/injection, schedule: Q03HX008 (ip), vehicle: saline) was 96 % of control; the T/C (dose: 7.5 grams/kg/injection, schedule: Q03HX016 (ip), vehicle: saline) was 95 % of control. For the same molecule, the T/C is, setting by setting: (dose: 7.5 grams/kg/injection, schedule: Q03HX024 (ip), vehicle: saline) 103 % of control; (dose: 7.5 grams/kg/injection, schedule: Q04DX003 (ip), vehicle: saline) 98 % of control; (dose: 7.5 grams/kg/injection, schedule: Q04DX003 (iv), vehicle: saline) 92 % of control; (dose: 7.5 grams/kg/injection, schedule: Q08DX002 (ip), vehicle: saline) 98 % of control; (dose: 15.0 grams/kg/injection, schedule: Q01DX001 (ip), vehicle: saline) 88 % of control; (dose: 15.0 grams/kg/injection, schedule: Q01DX005 (ip), vehicle: saline) 102 % of control. Also, the T/C was 96 % of control (dose: 15.0 grams/kg/injection, schedule: Q01DX009 (ip), vehicle: saline); 95 % of control (dose: 15.0 grams/kg/injection, schedule: Q04DX003 (ip), vehicle: saline); 94 % of control (dose: 15.0 grams/kg/injection, schedule: Q08DX002 (ip), vehicle: saline).

Regarding `NC(C(=O)O)c1ccccc1` (configuration not stated), the T/C is, setting by setting: (dose: 12.5 mg/kg/injection, schedule: Q04DX002 (ip), vehicle: Klucel (hydroxypropylcellulose) (HPC)) 96 % of control; (dose: 25.0 mg/kg/injection, schedule: Q04DX002 (ip), vehicle: Klucel (hydroxypropylcellulose) (HPC)) 104 % of control; (dose: 50.0 mg/kg/injection, schedule: Q04DX002 (ip), vehicle: Klucel (hydroxypropylcellulose) (HPC)) 96 % of control.

In the case of `CNCC1C=CCCC1` (configuration not stated), the T/C under setting [4] is 93 % of control and the T/C under setting [7] was 100 % of control.

In the case of `C/C(=N/Nc1ccc([N+](=O)[O-])cc1)c1ccncc1`, the T/C (dose: 50.0 mg/kg/injection, schedule: Q01DX009 (ip), vehicle: Klucel (hydroxypropylcellulose) (HPC)) was 101 % of control; the T/C under setting [1] is 111 % of control; the T/C under setting [2] is 89 % of control; the T/C (dose: 400.0 mg/kg/injection, schedule: Q01DX009 (ip), vehicle: Klucel (hydroxypropylcellulose) (HPC)) is 105 % of control.

With `CC1=C(Sc2ccccc2)c2ccccc2C1`, the T/C is, setting by setting: under setting [3], 86 % of control; under setting [6], 91 % of control; under setting [8], 91 % of control.

Turning to `NS(=O)(=O)c1ccc(N=Nc2ncc(CC(NC3=CC(=O)C(=O)c4ccccc43)C(=O)O)[nH]2)cc1` (configuration not stated), the T/C runs as follows: under setting [9], 96 % of control; (dose: 100.0 mg/kg/injection, schedule: Q01DX009 (ip), vehicle: saline) 96 % of control; (dose: 200.0 mg/kg/injection, schedule: Q01DX009 (ip), vehicle: saline) 105 % of control.

In the case of `CC(=O)Nc1ccc(N2CCN=N2)cc1`, the T/C is 103 % of control (dose: 25.0 mg/kg/injection, schedule: Q01DX009 (ip), vehicle: saline with Tween-80); 109 % of control (dose: 50.0 mg/kg/injection, schedule: Q01DX009 (ip), vehicle: saline with Tween-80); 97 % of control under setting [5].

`Cc1ccc(C(SCC(N)C(=O)O)(c2ccccc2)c2ccccc2)cc1` (configuration not stated): the T/C by setting is: (dose: 12.5 mg/kg/injection, schedule: Q01DX009 (ip), vehicle: other) 157 % of control; (dose: 12.5 mg/kg/injection, schedule: Q01DX009 (ip), vehicle: saline) 159 % of control; (dose: 25.0 mg/kg/injection, schedule: Q01DX009 (ip), vehicle: other) 157 % of control; (dose: 25.0 mg/kg/injection, schedule: Q01DX009 (ip), vehicle: saline) 171 % of control; (dose: 50.0 mg/kg/injection, schedule: Q01DX009 (ip), vehicle: other) 151 % of control; under setting [9], 204 % of control.

Turning to `CC(=O)O[C@H]1CC[C@]2(C)C3=C([C@@H](OO)C[C@H]2C1(C)C)[C@]1(C)CC[C@H]([C@H](C)CCCC(C)C)[C@@]1(C)CC3`, the T/C is 97 % of control (dose: 100.0 mg/kg/injection, schedule: Q01DX001 (ip), vehicle: other); 95 % of control (dose: 200.0 mg/kg/injection, schedule: Q01DX001 (ip), vehicle: other); 95 % of control (dose: 400.0 mg/kg/injection, schedule: Q01DX001 (ip), vehicle: other).

On to `CC1=NN(c2ccccc2)C(=O)C1N=Nc1ccc([As](=O)(O)O)c(O)c1` (configuration not stated), for which the T/C reads like this: under setting [3], 96 % of control; under setting [6], 102 % of control; under setting [8], 100 % of control.
